Measurements from US10149644B2, “Curcumin derivatives for amyloid-β plaque imaging” (The General Hospital Corporation, priority 2008, dated 2018).
Like-named read-outs stand apart in the source and are kept apart here.

Legend:
Aβ plaques = test: AD tissue staining of APP-PS1 brain sections; conditions: 25 micron sections, 12-month old APP-PS1 mice
Source text: The inventors conducted tissue staining with 25 micron brain sections from 12-month old APP-PS1 mice by all the compounds listed in FIG. 12.

Aβ40 aggregates [1] = target: T1, Aβ40 aggregates (Homo sapiens, UniProt P05067); test: Aβ aggregates detection in solution by fluorescence spectrum; type: binding; conditions: 250 nM compound, 250 nM Aβ40 aggregates, PBS
T1 construct: Synthetic amyloid-b protein (1-40) was purchased from rPeptide; purchased rPeptide (Bogart, Ga.)
T1 sequence (P05067 672-711 limits assumed): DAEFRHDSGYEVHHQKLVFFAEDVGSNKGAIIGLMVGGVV
Experimental: They then incubated 250 nM of the compounds with 250 nM of Aβ40 aggregates (calculation based on monomer) in PBS for one minute, and then measured the fluorescence spectra of the solutions.

[2] = Fluorescence emission properties of the probes; type: physicochemical; conditions: probe alone, methanol (FIG. 2)
Experimental: Reagents used for synthesis were purchased from Aldrich without further purification. Column chromatography was performed on silica gel (SiliCycle Inc., 60 Å, […]) slurry packed into glass columns. Thioflavin S was purchased from Aldrich. Synthetic amyloid-b protein (1-40) was purchased from rPeptide (Bogart, Ga., 30622) and aggregates for in vitro studies were generated followed the reported procedure. BSA was purchased from Sigma, and human serum was obtained from Invitrogen (type AB). ^1H and ^13C NMR spectra were recorded at 400 MHz and 100 MHz respectively, and are reported in ppm downfield from tetramethylsilane. Fluorescence studies were carried out with F-4500 Fluorescense Spectrophotometer. Fluorescence quantum yields were determined using aqueous solution of Cy5.5-maleimide as a standard (y=0.23). High resolution mass spectra were obtained at the Harvard University, Department of Chemistry Instrumentation Facility. Transgenic Tg2576 mice {45} and littermates were purchased from Taconic Farm, Balb/c mice for BBB penetrating test were obtained from Jackson Laboratory, and the experiment procedure was approved by Massachusetts General Hospital. In vivo imaging was recorded on Kodak Imaging Station 2000MM.
Furthermore, by comparing the fluorescence intensity in methanol, the quantum yield of CRANAD-2 was significant higher than that of curcumin (FIG. 2). […] Additionally, these modifications produced a large stokes shift and improved quantum yield of CRANAD-2. The synthesized compound produced the longest emission and the largest stokes shift among the existing probes for senile plaque detection {3}.

[3] = cited from earlier work
Aβ40 aggregates [4] = target: T1, Aβ40 aggregates; conditions: reported values used for comparison; read-out: Kd towards Aβ aggregates (literature); cited from earlier work
Aβ40 aggregates [5] = target: T1, Aβ40 aggregates; test: In vitro Aβ aggregates binding constant measurement; conditions: Aβ40 aggregates in PBS, fluorescence intensity, nonlinear one-site regression; read-out: Binding constant (Kd) towards Aβ aggregates
Experimental: […] The Kd binding curve was generated by software Prism 3.0 with nonlinear one-site binding regression.
Binding constant (Kd) of CRANAD-2 towards Aβ aggregates was measured by fluorescence intensity (F.I.) with various concentrations of the prob.

senile plaques = test: Ex vivo histological correlation; type: in vivo, mice; conditions: 10 mg/kg i.v.
Experimental: 19 month-old mouse was injected CRANAD-2 (10.0 mg/kg), and was sacrified after perfusion with 4% formaldehyde. The brain was taken and embedded in OCT. For histology, the brain was sliced into 25μ slices, and co-stained with thioflavin S as described above. To obtain ex vivo confirmation of the probe binding, mice at different ages were i.v injected with 10 mg/kg of CRANAD-2 probe, perfused and scarified at 1 h after injection.

COc1cc(C=CC(=O)CC(=O)C=Cc2ccc(O)c(OC)c2)ccc1O [curcumin, 1,7-bis(4-hydroxy-3-methoxyphenyl)-1,6-heptadiene-3,5-dione]
Staining of plaques in brain sections (Aβ plaques): stained the plaques brightly
Fluorescence intensity change with Aβ40 aggregates (Aβ40 aggregates [1]; one minute): intensity increases
Wavelength shift with Aβ40 aggregates (Aβ40 aggregates [1]; one minute): wavelength blue-shifts
Stokes shift [2]: 50 nm
λmax(em) [2]: 560 nm
λmax(ex) [2]: 510 nm
log P (literature) [3]: < 2

[11CH3]Nc1ccc(-c2nc3ccc(O)cc3s2)cc1 [PiB]
Staining of plaques in brain sections (Aβ plaques): stained the plaques brightly

N#CC(C#N)=Cc1ccc(-c2ccc(-c3ccc(O)cc3)s2)s1 [NIAD-4]
Kd (Aβ40 aggregates [4]): 10 nM

COc1cc(C=CC2=CC(C=Cc3ccc(O)c(OC)c3)=[O+][B-](F)(F)O2)ccc1O [CRANAD-1, 1,7-Bis-(4-hydroxy-3-methoxyphenyl)-hepta-1,6-diene-2′,2′-difluoro-1′,3′-dioxaboryl-3,5-dione]
Kd (Aβ40 aggregates [5]): 1 nM
Labelling of senile plaques ex vivo after i.v. injection (senile plaques; 11-month old transgenic and wild-type mice, thioflavin S staining): could not find obvious senile plaques
Labelling of senile plaques ex vivo after i.v. injection (senile plaques; 19-month old transgenic mice): can penetrate BBB and label senile plaques in vivo

Cc1ccc2c(c1)sc(-c1ccc(N(C)C)cc1)[n+]2C.[Cl-] [Thioflavin T]
Staining of plaques in brain sections (Aβ plaques): stained the plaques brightly
FI amplification with Aβ40 aggregates (Aβ40 aggregates [1]): 72 fold
Fluorescence intensity change with Aβ40 aggregates (Aβ40 aggregates [1]; one minute): intensity increases
